Measured values: the kinase profiling compilation of Christmann-Franck et al. (2016)

Columns and labels:
Assay in all cases: KINOMEscan competition binding
Conditions in all cases: compound 10.0 µM
ACVR2B (human) = ACVR2B (human) (UniProt Q13705)
MAPKAPK2 (human) = MAPKAPK2 (human) (UniProt P49137)
CLK1 (human) = CLK1 (human) (UniProt P49759)
FER (human) = FER (human) (UniProt P16591)
[1] = system: FLT3 (human), P36888 [N841I]
CDK17 (human) = CDK17 (human) (UniProt Q00537)
MAP4K1 (human) = MAP4K1 (human) (UniProt Q92918)
TEK (human) = TEK (human) (UniProt Q02763)
CDK2 (human) = CDK2 (human) (UniProt P24941)
[2] = biological target: TYK2 JH1 catalytic (human) (UniProt P29597)
LYN (human) = LYN (human) (UniProt P07948)
CDK9 (human) = CDK9 (human) (UniProt P50750)
BMP2K (human) = BMP2K (human) (UniProt Q9NSY1)
PHKG1 (human) = PHKG1 (human) (UniProt Q16816)
TAOK1 (human) = TAOK1 (human) (UniProt Q7L7X3)
LATS2 (human) = LATS2 (human) (UniProt Q9NRM7)
LATS2 (human), sequence (Q9NRM7 whole entry, looked up): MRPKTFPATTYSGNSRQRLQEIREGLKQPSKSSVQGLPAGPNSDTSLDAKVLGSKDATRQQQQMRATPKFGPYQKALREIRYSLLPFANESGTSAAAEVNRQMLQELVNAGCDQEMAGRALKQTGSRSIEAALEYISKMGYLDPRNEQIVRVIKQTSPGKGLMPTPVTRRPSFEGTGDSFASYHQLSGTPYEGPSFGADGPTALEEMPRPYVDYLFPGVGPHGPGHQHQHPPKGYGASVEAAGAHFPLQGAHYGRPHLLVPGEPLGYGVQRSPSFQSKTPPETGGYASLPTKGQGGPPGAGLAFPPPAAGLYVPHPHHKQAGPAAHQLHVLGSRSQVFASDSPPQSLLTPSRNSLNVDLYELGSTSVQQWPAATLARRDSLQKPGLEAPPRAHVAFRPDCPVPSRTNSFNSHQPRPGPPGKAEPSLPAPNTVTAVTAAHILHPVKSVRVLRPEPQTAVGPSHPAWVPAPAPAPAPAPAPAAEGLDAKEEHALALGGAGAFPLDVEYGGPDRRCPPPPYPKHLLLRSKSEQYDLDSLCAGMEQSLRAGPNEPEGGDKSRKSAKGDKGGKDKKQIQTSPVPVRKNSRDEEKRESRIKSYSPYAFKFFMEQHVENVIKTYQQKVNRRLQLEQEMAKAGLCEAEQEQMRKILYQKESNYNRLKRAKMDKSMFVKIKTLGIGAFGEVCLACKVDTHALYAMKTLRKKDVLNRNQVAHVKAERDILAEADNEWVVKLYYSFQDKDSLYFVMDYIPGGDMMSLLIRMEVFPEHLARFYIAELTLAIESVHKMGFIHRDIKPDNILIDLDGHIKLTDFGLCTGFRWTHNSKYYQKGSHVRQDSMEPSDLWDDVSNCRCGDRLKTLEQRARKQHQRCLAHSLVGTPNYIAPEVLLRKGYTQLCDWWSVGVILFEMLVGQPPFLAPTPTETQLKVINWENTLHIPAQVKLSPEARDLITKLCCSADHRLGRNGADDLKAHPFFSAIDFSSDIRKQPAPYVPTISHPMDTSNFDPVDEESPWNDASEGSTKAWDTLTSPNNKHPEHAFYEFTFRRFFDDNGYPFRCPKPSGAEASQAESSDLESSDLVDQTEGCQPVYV

EPHB4 (human) = EPHB4 (human) (UniProt P54760)
EPHB4 (human), sequence (P54760 whole entry, looked up): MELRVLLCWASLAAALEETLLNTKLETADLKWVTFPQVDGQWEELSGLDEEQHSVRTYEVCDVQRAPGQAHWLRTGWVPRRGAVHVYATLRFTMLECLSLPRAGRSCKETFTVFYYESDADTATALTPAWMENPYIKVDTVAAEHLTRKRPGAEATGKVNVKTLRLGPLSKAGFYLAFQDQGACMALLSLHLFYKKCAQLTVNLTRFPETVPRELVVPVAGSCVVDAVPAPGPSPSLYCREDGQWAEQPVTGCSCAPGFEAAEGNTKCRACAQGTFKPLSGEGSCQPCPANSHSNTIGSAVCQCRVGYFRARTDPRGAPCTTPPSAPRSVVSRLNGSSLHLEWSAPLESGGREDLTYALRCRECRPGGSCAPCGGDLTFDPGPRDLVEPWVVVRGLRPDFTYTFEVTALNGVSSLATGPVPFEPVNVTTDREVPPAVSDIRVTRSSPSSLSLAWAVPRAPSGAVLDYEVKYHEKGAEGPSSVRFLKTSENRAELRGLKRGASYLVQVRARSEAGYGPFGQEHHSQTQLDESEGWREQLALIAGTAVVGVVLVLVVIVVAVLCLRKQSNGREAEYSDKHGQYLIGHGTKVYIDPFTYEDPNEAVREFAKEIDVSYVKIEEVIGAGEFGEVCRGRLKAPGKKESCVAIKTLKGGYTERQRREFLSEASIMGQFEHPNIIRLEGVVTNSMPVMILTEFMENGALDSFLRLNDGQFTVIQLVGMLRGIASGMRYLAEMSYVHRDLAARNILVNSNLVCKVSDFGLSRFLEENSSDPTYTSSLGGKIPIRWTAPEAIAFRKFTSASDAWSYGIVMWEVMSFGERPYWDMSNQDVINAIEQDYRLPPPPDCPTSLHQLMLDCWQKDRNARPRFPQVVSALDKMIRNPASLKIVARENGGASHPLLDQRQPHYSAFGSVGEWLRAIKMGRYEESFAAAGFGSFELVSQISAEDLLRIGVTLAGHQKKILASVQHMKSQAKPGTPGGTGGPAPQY

NUAK1 (human) = NUAK1 (human) (UniProt O60285)
CDC2L2 (human) = CDC2L2 (human) (UniProt Q9UQ88)
[3] = system: EGFR (human), P00533 [747-751 del / S ins]
EGFR (human), P00533 [747-751 del / S ins], sequence (P00533 whole entry, looked up, stated change not applied): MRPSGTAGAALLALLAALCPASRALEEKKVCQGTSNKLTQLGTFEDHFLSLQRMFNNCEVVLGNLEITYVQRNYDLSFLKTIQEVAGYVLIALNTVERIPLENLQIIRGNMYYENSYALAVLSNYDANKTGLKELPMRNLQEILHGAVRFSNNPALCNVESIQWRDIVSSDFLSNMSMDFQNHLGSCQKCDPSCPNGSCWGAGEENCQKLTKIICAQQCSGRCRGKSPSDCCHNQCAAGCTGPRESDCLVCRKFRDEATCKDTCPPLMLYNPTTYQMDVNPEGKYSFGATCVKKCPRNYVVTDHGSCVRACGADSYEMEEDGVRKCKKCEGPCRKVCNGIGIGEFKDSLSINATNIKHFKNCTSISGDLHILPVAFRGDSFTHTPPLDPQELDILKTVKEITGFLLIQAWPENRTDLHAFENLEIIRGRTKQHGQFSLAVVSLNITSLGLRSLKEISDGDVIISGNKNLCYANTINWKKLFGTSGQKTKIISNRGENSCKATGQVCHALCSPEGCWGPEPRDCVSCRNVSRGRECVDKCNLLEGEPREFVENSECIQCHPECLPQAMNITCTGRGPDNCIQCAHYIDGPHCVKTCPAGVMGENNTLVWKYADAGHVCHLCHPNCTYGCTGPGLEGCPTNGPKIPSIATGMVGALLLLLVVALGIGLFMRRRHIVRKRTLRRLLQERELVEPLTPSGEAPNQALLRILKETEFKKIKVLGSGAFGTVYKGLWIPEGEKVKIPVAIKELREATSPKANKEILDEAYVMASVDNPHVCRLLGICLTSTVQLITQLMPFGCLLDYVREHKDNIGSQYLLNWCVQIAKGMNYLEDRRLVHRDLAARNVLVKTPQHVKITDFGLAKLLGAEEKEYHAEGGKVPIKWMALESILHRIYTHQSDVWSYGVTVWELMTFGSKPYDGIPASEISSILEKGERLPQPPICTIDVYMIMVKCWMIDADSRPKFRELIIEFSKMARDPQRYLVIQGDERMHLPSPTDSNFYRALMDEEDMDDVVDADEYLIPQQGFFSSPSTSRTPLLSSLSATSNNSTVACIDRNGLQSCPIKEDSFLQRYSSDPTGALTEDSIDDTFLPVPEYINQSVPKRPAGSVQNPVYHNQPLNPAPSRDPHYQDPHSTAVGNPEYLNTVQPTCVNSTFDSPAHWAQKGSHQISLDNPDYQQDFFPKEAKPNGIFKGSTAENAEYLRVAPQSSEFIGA

MST1R (human) = MST1R (human) (UniProt Q04912)
MAP2K3 (human) = MAP2K3 (human) (UniProt P46734)
CDC42BPG (human) = CDC42BPG (human) (UniProt Q6DT37)
CAMK2B (human) = CAMK2B (human) (UniProt Q13554)
CDK3 (human) = CDK3 (human) (UniProt Q00526)
MAPK10 (human) = MAPK10 (human) (UniProt P53779)
PRKD3 (human) = PRKD3 (human) (UniProt O94806)
FYN (human) = FYN (human) (UniProt P06241)
CHEK2 (human) = CHEK2 (human) (UniProt O96017)
STK38 (human) = STK38 (human) (UniProt Q15208)
RIOK3 (human) = RIOK3 (human) (UniProt O14730)
MINK1 (human) = MINK1 (human) (UniProt Q8N4C8)
ACVR2A (human) = ACVR2A (human) (UniProt P27037)
MAPK3 (human) = MAPK3 (human) (UniProt P27361)
[4] = system: EGFR (human), P00533 [746-750 del]
EGFR (human), P00533 [746-750 del], sequence (P00533 whole entry, looked up, stated change not applied): as above

SGK110 (human) = SGK110 (human) (UniProt P0C264)
STK38L (human) = STK38L (human) (UniProt Q9Y2H1)
ACVRL1 (human) = ACVRL1 (human) (UniProt P37023)
ACVRL1 (human), sequence (P37023 whole entry, looked up): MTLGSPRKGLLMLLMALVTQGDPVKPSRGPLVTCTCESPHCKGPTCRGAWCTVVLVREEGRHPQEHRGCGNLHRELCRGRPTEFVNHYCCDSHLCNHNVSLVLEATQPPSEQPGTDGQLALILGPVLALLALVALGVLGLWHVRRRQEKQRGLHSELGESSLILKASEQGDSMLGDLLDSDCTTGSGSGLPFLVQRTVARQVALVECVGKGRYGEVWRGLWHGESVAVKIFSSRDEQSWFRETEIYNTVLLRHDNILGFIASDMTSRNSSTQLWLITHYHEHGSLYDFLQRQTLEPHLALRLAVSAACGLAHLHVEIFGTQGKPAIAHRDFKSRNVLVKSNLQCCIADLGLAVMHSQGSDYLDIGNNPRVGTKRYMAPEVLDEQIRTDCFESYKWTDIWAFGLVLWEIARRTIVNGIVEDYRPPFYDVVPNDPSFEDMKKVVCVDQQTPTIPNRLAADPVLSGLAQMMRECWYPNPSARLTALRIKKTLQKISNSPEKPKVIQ

FLT3 (human) = FLT3 (human) (UniProt P36888)
PKN1 (human) = PKN1 (human) (UniProt Q16512)
AURKA (human) = AURKA (human) (UniProt O14965)
PHKG2 (human) = PHKG2 (human) (UniProt P15735)

`Cc1cc([C@@H](C)Nc2ccccc2C(=O)O)c2nc(N3CCOCC3)cc(=O)n2c1` gave a kinase still bound, per cent of control (ACVR2B (human)) of 100%, a kinase still bound, per cent of control (MAPKAPK2 (human)) of 95% and a kinase still bound, per cent of control (CLK1 (human)) of 56%. It also gave a kinase still bound, per cent of control (FER (human)) of 81%, a kinase still bound, per cent of control [1] of 26% and a kinase still bound, per cent of control (CDK17 (human)) of 100%. It also gave a kinase still bound, per cent of control (MAP4K1 (human)) of 90%, a kinase still bound, per cent of control (TEK (human)) of 94% and a kinase still bound, per cent of control (CDK2 (human)) of 64%. The kinase still bound, per cent of control [2] was 100%, the kinase still bound, per cent of control (LYN (human)) was 89% and the kinase still bound, per cent of control (CDK9 (human)) was 89%. It also gave a kinase still bound, per cent of control (BMP2K (human)) of 100%, a kinase still bound, per cent of control (PHKG1 (human)) of 100% and a kinase still bound, per cent of control (TAOK1 (human)) of 79%. It also gave a kinase still bound, per cent of control (LATS2 (human)) of 97%, a kinase still bound, per cent of control (EPHB4 (human)) of 95% and a kinase still bound, per cent of control (NUAK1 (human)) of 100%. For the same molecule, the kinase still bound, per cent of control (CDC2L2 (human)) was 100%, the kinase still bound, per cent of control [3] was 68% and the kinase still bound, per cent of control (MST1R (human)) was 96%. It also gave a kinase still bound, per cent of control (MAP2K3 (human)) of 99%, a kinase still bound, per cent of control (CDC42BPG (human)) of 99% and a kinase still bound, per cent of control (CAMK2B (human)) of 89%. For the same molecule, the kinase still bound, per cent of control (CDK3 (human)) was 92%, the kinase still bound, per cent of control (MAPK10 (human)) was 66% and the kinase still bound, per cent of control (PRKD3 (human)) was 85%. For the same molecule, the kinase still bound, per cent of control (FYN (human)) was 41%, the kinase still bound, per cent of control (CHEK2 (human)) was 100% and the kinase still bound, per cent of control (STK38 (human)) was 84%. For the same molecule, the kinase still bound, per cent of control (RIOK3 (human)) was 100%, the kinase still bound, per cent of control (MINK1 (human)) was 100% and the kinase still bound, per cent of control (ACVR2A (human)) was 95%. For the same molecule, the kinase still bound, per cent of control (MAPK3 (human)) was 94%, the kinase still bound, per cent of control [4] was 100% and the kinase still bound, per cent of control (SGK110 (human)) was 68%. For the same molecule, the kinase still bound, per cent of control (STK38L (human)) was 92%, the kinase still bound, per cent of control (ACVRL1 (human)) was 100% and the kinase still bound, per cent of control (FLT3 (human)) was 4.2%. For the same molecule, the kinase still bound, per cent of control (PKN1 (human)) was 100%, the kinase still bound, per cent of control (AURKA (human)) was 75% and the kinase still bound, per cent of control (PHKG2 (human)) was 67%.
